The test system of this assay is fresh & PDX human tumors. As to the kind of experiment: EVOC drug dose calibration, cell death by H&E viability score. Type of assay: cell-based. From the text:
Tissue acquisition and EVOC. Female NOD scid gamma (NSG) mice (4-6 months old) bearing PDX tumors were purchased from Jackson Laboratories. Mice arrived to the facility when the tumors had grown sufficiently to be apparent (approximately 60 mm^3) and were maintained until the maximal permitted tumor volume of 1,000 mm^3 was achieved. Mice were killed with CO2, and tumor tissues were removed and placed in ice-cold PBS. Tumors were sliced into 250-μm-thick slices using a vibratome (VF300, Precisionary Instruments) and placed in six-well plates on titanium grids (MA0036, Alabama R&D) with 4 ml of DMEM/F12 medium (supplemented with 5% fetal calf serum, 100 IU ml^−1 penicillin with 100 μg ml−1 streptomycin, 2.5 μg ml^−1 amphotericin B, […] gentamicin sulfate and 100 μl ml−1 l-glutamine). Tissue was cultured at 37° C. with 5% CO2 and 80% O2 on an orbital shaker (TOU-120N, MRC) at 70 r.p.m. The following day, tissue was treated with drugs as indicated for 96 h (medium was changed after 48 h and fresh drug was added), followed by formalin fixing and paraffin embedding after overnight fixation in 4% paraformaldehyde. Note that duplicates and triplicates were assigned randomly to mimic heterogeneity within the tumor tissue in vivo.
Human tumor tissue, either from primary colon cancer or metastatic lesions, was obtained from individuals at the time of operation or at the time of tissue core biopsy. After resection, the fresh tissue was placed in ice-cold PBS for immediate transfer to the lab for EVOC. Specimens were coded anonymously before their arrival to the lab. Forty-six individuals were enrolled in the study and had sufficient tumor volume at operation or accessible tumors for core biopsy to allow us to perform EVOC. In one individual, both primary and metastatic cancer tissue was obtained so that 47 samples in total were studied. In 14 individuals, there was either adenoma or not enough tumor tissue for evaluation. In an additional three individuals, the tissue was necrotic before slicing and EVOC. In one individual, the tissue culture was contaminated, and in one individual, the fixation was insufficient. Finally, 29 CRC primary or metastatic tumors from 28 individuals were analyzed by EVOC.
Histologic sections were assessed for viability by an independent blinded pathologist. Tissue viability was scored on a scale from 0 to 4, where 0 is less than 10% viable tissue and 4 is more than 90% viable tissue. Scores of 3, 2 and 1 correspond to tissue viability of 61-90%, 31-60% and 10-30%, respectively.
Determination of drug treatment concentrations. To determine the concentration of each drug to be used in the ex vivo screen, we first calibrated the effect of multiple concentrations of each drug on PDX CRC tumors. For the screens, we selected the doses that were minimally effective in killing tissue after 4 d of treatment as evaluated by H&E staining. […] In addition, when testing targeted therapies, the present inventors validated that the chosen drug concentrations were effective in inhibiting their targets. This was evaluated by immunohistochemical staining after 24 h of treatment (FIGS. 11A-C). Here again, the lowest drug concentration that was enough to inhibit the drug target was used.

The mark [1] stands for this setting: EVOC, concentrations that demonstrate a difference in amount of cell death in individual patient tissues.

Where two headings read alike, the source gives them in different places.

With `N.N.[Cl][Pt][Cl]` [Cisplatin], under setting [1], the “Range eliciting differential response” value is 0.3-30^ uM.

`Cl.Cl.O=S(=O)(NCCNC/C=C/c1ccc(Br)cc1)c1cccc2cnccc12` [H89 2HCl, H-89 dihydrochloride]: the “Range eliciting differential response” value under setting [1] is 1 to 16 µM.

Take `COc1ccc(C2=N[C@@H](c3ccc(Cl)cc3)[C@@H](c3ccc(Cl)cc3)N2C(=O)N2CCNC(=O)C2)c(OC(C)C)c1` [Nutlin]: the “Range eliciting differential response” value under setting [1] fell in the range of 4 to 16 µM.

Consider `O=C1[O][Pt]2([NH][C@@H]3CCCC[C@H]3[NH]2)[O]C1=O` [Oxaliplatin], for which the “Range eliciting differential response” value was in the range of 2 to 64 µM.

As to `Cc1cc(Nc2cc(N3CCN(C)CC3)nc(Sc3ccc(NC(=O)C4CC4)cc3)n2)n[nH]1` [VX-680], the “Range eliciting differential response” value under setting [1] fell in the range of 1 to 16 µM.

(Values after patent US20240197746A1, “COMBINATION THERAPY WITH A MEK INHIBITOR AND A SRC INHIBITOR FOR THE TREATMENT OF COLORECTAL CANCER” (Yeda Research and Development Co. Ltd., priority 2021, published 2024).)
